Results taken from patent publication US20070275902A1, “Treatment of Phosphatidylinositol Phospholipid Disorders” (TRANSMOLECULAR, INC., priority 2003, published 2007).
Entries after “also recorded” stand apart in the source; their conditions may differ.

Test: Binding to phosphatidylinositol beads (PIP beads), biotinylated peptide detected with streptavidin-HRP/TMB
Settings: biotinylated peptide at final concentration of 100 μM, two hours at room temperature, absorbance 595 nm
Procedure: Sedimented suspensions of PIP beads™ were obtained from Molecular Probes. The beads are supplied as 10 nanomoles of bound phosphoinositide per milliliter of sedimented suspension. PIP beads were pelleted by centrifugation at low speed in a Beckman Coulter Microfuge. Pelleted beads were washed in wash-binding buffer (0.5% NP-40 in phosphate-buffered saline, 1 ml, 3×5 minutes) and centrifuged at low speed following each wash. After washing, pelleted beads were resuspended in an equal volume of Wash/Binding buffer. 100 μl of bead suspension was used for each binding reaction. Biotinylated chlorotoxin was diluted in wash-binding buffer, added to each phosphatidylinositol bead suspension at a final concentration of 100 μM and allowed to incubate for two hours at room temperature. Following incubation with chlorotoxin, the bead suspensions were washed in Wash/Binding buffer (1 ml, 3×5 minutes) and centrifuged at low speed after each wash. Streptavidin horseradish peroxidase (Vector Labs) was diluted 1:1000 in wash-binding buffer, 100 μl of this solution was added to each of the phosphatidylinositol bead suspensions, and allowed to incubate […] at room temperature. Following incubation with streptavidin, bead suspensions were washed thoroughly in Wash/Binding buffer (1 ml, 5×10 minutes) and centrifuged at low speed after each wash. Immediately prior to use, a 1:1 mixture of TMB substrate (Pierce) was prepared, 100 μl of this solution was added to each reaction, and allowed to incubate at room temperature for up to thirty minutes. After incubation with substrate, bead suspensions were pelleted by centrifugation, supernatants were transferred to a 96-well plate and absorbance (λ=595 nm) was obtained using BioRad microplate reader and microplate manager software.
In order to confirm the identify of the minimal binding sequences within the alpha and beta peptides, each of the two peptides was incubated with different species of phosphatidylinositols as set forth in Example 1.

Row | Substance | binding to different species of phosphatidylinositols
1 | KGRGKSY [beta-domain peptide] | binds to multiple species of phosphatidylinositols; also recorded: bound to all of the same species of phosphatidylinositols as did chlorotoxin
2 | TDHQMAR [alpha-domain peptide] | no binding activity
3 | chlorotoxin | binding of chlorotoxin to different phosphatidylinositols
